From PMC9933715 (Antimicrobial Agents and Chemotherapy, 2023)
pEC50: −log10 of the molar value. “Also recorded” adds a separate entry of the source. Where two headings read alike, the source gives them in different places.

Columns and labels:
[1] = test system: DENV-R2A (Rluc-expressing DENV, serotype 2 strain 16681); test: microbe, parasite or virus in culture; type: cell-based, Dengue virus
[2] = test system: ZIKV-R2A (strain FSS13025); test: microbe, parasite or virus in culture; type: cell-based; settings: Zika virus, Huh7.5, 48 h
DENV2 16681s [3] = test: Infectious viral titer by plaque assay, wild-type DENV2 in Huh7.5 cells; type: cell-based, Dengue virus; settings: 50 μM, MOI 0.1, Huh7.5, 2 days postinfection
ZIKV H/PF/2013 = test: Infectious viral titer by plaque assay, ZIKV in Huh7.5 cells; type: cell-based, Zika virus; settings: 50 μM, MOI 0.1, Huh7.5, 2 days postinfection
WNV NY99 = test: Extracellular infectious titer by plaque assay, WNV in Huh7.5 cells; type: cell-based, West Nile virus; settings: 50 μM, Huh7.5
HCV, strain JFH-1 = type: cell-based, hepatitis C virus; settings: 50 μM, JFH-1-Luc, Huh7.5, 2 days
SARS-CoV-2 = type: cell-based
MHV-A59 = test: Infectious viral titer by plaque assay, MHV-A59 in DBT cells; type: cell-based, mouse hepatitis virus; settings: 50 μM, MOI 0.0001, 1 day postinfection
DENV-R2A = type: cell-based, Dengue virus; settings: 50 μM
sg-DENV-R2H = test: Resistance selection with selectable subgenomic replicon sg-DENV-R2H in Huh7.5 cells; type: cell-based, Dengue virus; settings: 100 µM, hygromycin 500 µg/mL, 31 days of dual selection
DENV2 16681s [4] = test: Intracellular DENV vRNA (RT-qPCR) and NS4B (western blot) in infected Huh7.5 cells; type: cell-based, Dengue virus; settings: 50 μM, MOI 0.1, Huh7.5, 2 days postinfection
[5] = target: ZIKV NS3/NS4B interaction (Zika virus, UniProt A0A024B7W1); test: Coimmunoprecipitation assay of NS3/NS4B interaction; settings: unpublished data
Chain of ZIKV NS3/NS4B interaction (A0A024B7W1 1503-2119): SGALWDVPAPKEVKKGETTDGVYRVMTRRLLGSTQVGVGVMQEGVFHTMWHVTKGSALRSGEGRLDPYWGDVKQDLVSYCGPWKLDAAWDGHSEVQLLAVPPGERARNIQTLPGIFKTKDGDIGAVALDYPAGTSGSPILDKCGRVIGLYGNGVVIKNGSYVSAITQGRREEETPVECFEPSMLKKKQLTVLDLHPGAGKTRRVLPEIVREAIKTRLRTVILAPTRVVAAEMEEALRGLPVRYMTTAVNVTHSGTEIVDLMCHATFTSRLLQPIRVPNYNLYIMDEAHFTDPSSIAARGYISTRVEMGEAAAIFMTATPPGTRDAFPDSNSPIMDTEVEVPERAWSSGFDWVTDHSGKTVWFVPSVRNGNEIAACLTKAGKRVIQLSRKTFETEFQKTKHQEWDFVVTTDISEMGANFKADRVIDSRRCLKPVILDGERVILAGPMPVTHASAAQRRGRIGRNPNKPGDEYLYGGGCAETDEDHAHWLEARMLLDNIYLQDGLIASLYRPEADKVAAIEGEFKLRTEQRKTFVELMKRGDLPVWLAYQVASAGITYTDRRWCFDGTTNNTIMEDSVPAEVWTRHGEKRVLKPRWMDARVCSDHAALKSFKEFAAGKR
Chain of ZIKV NS3/NS4B interaction (A0A024B7W1 2270-2520): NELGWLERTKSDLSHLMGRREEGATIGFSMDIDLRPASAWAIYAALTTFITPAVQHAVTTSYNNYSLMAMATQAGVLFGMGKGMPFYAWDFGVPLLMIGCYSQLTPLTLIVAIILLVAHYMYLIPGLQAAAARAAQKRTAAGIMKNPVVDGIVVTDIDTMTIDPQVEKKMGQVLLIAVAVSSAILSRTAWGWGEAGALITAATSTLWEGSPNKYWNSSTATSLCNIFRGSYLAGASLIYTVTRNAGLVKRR

[6] = Cell viability, CellTiter-Glo luminescent assay; settings: human, CC50 Huh 7.5, uninfected Huh7.5, 2 days, CellTiter-Glo
Huh7.5 cells = test: Cell viability, CellTiter-Glo luminescent assay; settings: for cell viability / cytotoxicity at the used concentration: Huh7.5
[7] = test system: DENV vesicle packets (VP); test: Replication-independent vesicle packet induction (pIRO-D) in Huh7/Lunet-T7 cells, TEM, western blot, immunofluorescence; settings: 50 μM for 12 h, pIRO-D-transfected Huh7/Lunet-T7

In the case of CC(=O)c1ccc2cn[nH]c2c1 [Compound 6A1HI, 6-acetyl-1H-indazole], the “decrease of viral replication (DENV-R2A)” value ([1]; 50 μM, Huh7.5, 2 days postinfection, vs DMSO) was 714 fold, the activity at 50 µM ([1]; Dengue virus, Huh7.5, 48 h, read-out: DENV-R2A replication (Fold DMSO), 6A1HI analogues, test concentration = 50 µM, Huh7.5 cells) was 3.77% and the activity at 50 µM ([1]; Dengue virus, Huh7.5, 48 h, read-out: DENV-R2A replication (fold DMSO) Mean, deconvolution screen, singletons, 50 µM, Huh7.5, 2 days postinfection) was 0.244%. For the same molecule, the activity at 50 µM ([1]; Dengue virus, Huh7.5, 48 h, read-out: DENV-R2A replication (fold DMSO), Table 2, 6A1HI analogues, 50 μM, Huh7.5, 2 days postinfection) was 4%, the pEC50 ([1]; Dengue virus, Huh7.5, 48 h, read-out: EC50 DENV-R2A) was 5.19 and the pEC50 ([2]; read-out: EC50 ZIKV-R2A FSS13025) was 4.16. The activity at 50 µM ([2]; read-out: ZIKV-R2A replication (fold DMSO) Mean) was 29%, the “decrease of infectious DENV particle production / DENV titers” value (DENV2 16681s [3]) was “more than 100 fold” and the “decrease of released infectious virions (plaque assay)” value (DENV2 16681s [3]) was ~3 Log10-fold. For the same molecule, the “decrease of infectious DENV particle production / DENV titers” value (DENV2 16681s [3]; listed as 6A1H1) was “up to 1,000 fold”, the “reduction in ZIKV viral titers” value (ZIKV H/PF/2013) was 2 fold and the “impact on WNV replication” value (WNV NY99) was “Only moderate impacts (if any)”. The “impact on HCV replication” value (HCV, strain JFH-1) was “Only moderate impacts (if any)”, the “anti-SARS-CoV-2 activity (reduction)” value (SARS-CoV-2) was “less than 10 fold” and the “impact on SARS-CoV-2 (betacoronavirus) replication” value (SARS-CoV-2; 50 μM, Huh7.5) was “Only moderate impacts (if any)”. For the same molecule, the “impact on MHV replication” value (MHV-A59) was “Only moderate impacts (if any); also recorded: did not impede”, the “inhibitory activity when added after infection” value (DENV-R2A; added 4 h after infection) was “retain their full inhibitory activity” and the “inhibitory activity when added after infection” value (DENV-R2A; added up to 8 h after infection, read 2 days postinfection) was “retained a strong inhibitory activity”. For the same molecule, the “selection of resistant cells (genetic barrier to resistance)” value (sg-DENV-R2H) was “unable to select resistant cells”, the “intracellular levels of DENV vRNA and NS4B” value (DENV2 16681s [4]) was “decrease” and the “formation and stability of ZIKV NS3/NS4B interaction” value [5] was “do not inhibit”. For the same molecule, the CC50 at 48 h [6] was > 150 µM, the “cell viability / cytotoxicity at the used concentration” value (Huh7.5 cells; 50 μM) was “unaffected” and the “cell viability / cytotoxicity at the used concentration” value (Huh7.5 cells; 50 μM, listed as 6A1H1) was “without any cytotoxicity”. For the same molecule, the “Cell viability (Fold DMSO)” value (Huh7.5 cells; 6A1HI analogues, test concentration = 50 µM, Huh7.5 cells) was 0.93 Fold DMSO, the “Cell viability (Fold DMSO)” value (Huh7.5 cells; Table 2, 6A1HI analogues, 50 μM, Huh7.5, 2 days) was 0.93 fold DMSO and the “Cell viability (fold DMSO) Mean” value (Huh7.5 cells; deconvolution screen, singletons, 50 µM, uninfected Huh7.5) was 0.80 fold DMSO. For the same molecule, the CC50 (Huh7.5 cells; read-out: CC50 Huh 7.5, uninfected Huh7.5, 2 days, CellTiter-Glo) was 177 µM and the “levels of viral protein NS3 (western blot)” value [7] was “remained unchanged”.
